Assay results from patent publication US10723723B2, “Substituted bicycle heterocyclic derivatives useful as ROMK channel inhibitors” (BRISTOL-MYERS SQUIBB COMPANY, priority 2016, dated 2020).

Legend:
Assay type in all cases: cell-based
hROMK (human Kir1.1) = hROMK (human Kir1.1) (Homo sapiens (Human), UniProt P48048); test: Thallium Flux Assay (FluxOR, CHO T-Rex hROMK stable cell line); conditions: CHO T-Rex hROMK cells, 10-point concentration response curve; read-out: Human ROMK TH Flux IC50
hROMK = hROMK (Homo sapiens (Human), UniProt P48048); test: ROMK Manual Patch Clamp Assay; conditions: whole-cell manual patch clamp, hROMK current; read-out: ROMK EP IC50
Sequence of hROMK (P48048 whole entry): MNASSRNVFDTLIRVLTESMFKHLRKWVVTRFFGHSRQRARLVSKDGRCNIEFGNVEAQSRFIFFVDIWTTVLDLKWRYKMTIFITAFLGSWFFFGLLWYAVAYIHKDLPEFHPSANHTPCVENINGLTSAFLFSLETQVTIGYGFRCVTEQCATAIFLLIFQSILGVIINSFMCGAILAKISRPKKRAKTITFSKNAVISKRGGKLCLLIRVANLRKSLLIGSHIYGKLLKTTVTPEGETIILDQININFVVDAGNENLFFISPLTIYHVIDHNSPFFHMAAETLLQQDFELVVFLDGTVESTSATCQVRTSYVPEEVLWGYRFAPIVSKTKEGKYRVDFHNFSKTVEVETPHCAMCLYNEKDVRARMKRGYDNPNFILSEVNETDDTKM
Protocol: Cell culture conditions: Cells were maintained in conditions similar to those for Thallium flux assay. hROMK channel expression was induced by adding 0.6 μg/ml of Doxycycline 16-24 hrs prior to the experiments. On the day of experiment, the cells were dissociated using Versene, resuspended in growth media and plated onto coverslips 15 minutes prior to use.
The cells were voltage clamped at −75 mV in whole-cell configuration using an Axopatch 200b or Multiclamp 700b (Molecular Devices) amplifier controlled by pClamp Software (Molecular Devices). The current was recorded by applying a voltage step to −120 mV every 10 seconds. […] At the end of the experiment, the cells were perfused with bath solution containing 2 mM Ba^2+ to isolate the contribution of hROMK current.
Data analysis: Raw current values (5 traces each for control, different compound concentration and Ba^2+ treatment groups) were exported from Clampfit into Microsoft Excel where the current remaining after application of Ba^2+ was subtracted from raw current to obtain hROMK specific current.

hERG channels = hERG channels (Homo sapiens (Human), UniProt Q12809); test: hERG Manual Patch Clamp Assay (HEK 293 cells stably expressing hERG channels); conditions: for inhibition at 1 µM: human, HEK 293 cells stably expressing hERG channels, pH 7.4
Sequence of hERG channels (Q12809 whole entry): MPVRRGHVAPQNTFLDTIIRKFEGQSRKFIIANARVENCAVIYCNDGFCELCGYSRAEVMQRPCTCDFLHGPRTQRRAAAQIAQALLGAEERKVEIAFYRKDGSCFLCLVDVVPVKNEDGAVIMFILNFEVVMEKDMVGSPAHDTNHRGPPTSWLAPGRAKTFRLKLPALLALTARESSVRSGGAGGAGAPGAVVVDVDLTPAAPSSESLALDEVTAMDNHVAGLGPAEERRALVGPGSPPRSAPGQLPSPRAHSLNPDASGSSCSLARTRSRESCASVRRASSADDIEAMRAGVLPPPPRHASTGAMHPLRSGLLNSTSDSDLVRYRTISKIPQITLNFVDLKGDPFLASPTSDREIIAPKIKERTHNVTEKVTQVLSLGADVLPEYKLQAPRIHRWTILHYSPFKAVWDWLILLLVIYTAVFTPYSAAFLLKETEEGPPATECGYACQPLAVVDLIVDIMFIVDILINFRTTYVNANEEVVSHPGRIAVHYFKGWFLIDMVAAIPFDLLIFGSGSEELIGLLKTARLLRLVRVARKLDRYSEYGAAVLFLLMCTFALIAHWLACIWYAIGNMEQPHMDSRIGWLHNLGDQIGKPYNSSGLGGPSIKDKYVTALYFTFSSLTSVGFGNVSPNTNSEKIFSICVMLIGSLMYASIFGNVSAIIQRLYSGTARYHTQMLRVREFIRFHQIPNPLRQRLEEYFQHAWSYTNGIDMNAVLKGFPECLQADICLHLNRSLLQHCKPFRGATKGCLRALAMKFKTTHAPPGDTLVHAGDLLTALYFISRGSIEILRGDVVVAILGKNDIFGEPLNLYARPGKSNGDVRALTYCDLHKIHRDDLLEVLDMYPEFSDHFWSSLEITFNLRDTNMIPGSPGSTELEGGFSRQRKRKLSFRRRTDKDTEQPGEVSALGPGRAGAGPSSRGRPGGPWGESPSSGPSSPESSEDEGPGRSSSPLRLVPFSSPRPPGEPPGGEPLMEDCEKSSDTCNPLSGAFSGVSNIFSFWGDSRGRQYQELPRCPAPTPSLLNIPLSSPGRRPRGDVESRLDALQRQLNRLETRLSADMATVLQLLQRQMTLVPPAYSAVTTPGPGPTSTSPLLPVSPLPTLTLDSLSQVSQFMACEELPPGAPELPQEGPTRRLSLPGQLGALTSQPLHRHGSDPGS

Sequence of hROMK (human Kir1.1) (P48048 whole entry): as the sequence (P48048 whole entry) above

Row | Compound | IC50 (hROMK (human Kir1.1)) [nM] | IC50 (hROMK) [nM] | inhibition at 1 µM (hERG channels) [%] | hERG EP IC50 (% Inh @1 uM) (hERG channels; % inhibition of hERG current at 1 uM, manual patch clamp, HEK 293 cells) [%]
1 | Cc1cc(-n2cc(CNC[C@H](O)c3ccc4c(c3C)COC4=O)nn2)nc(C)c1C#N [Example 69, (R)-6-(4-(((2-hydroxy-2-(4-methyl-1-oxo-1,3-dihydroisobenzofuran-5-yl)ethyl)amino)methyl)-1H-1,2,3-triazol-1-yl)-2,4-dimethylnicotinonitrile] | 14 | 6.1 | 15 | –
2 | Cc1c([C@@H](O)CNCc2cnc(-n3cc(C#N)c(C(F)F)n3)nc2)ccc2c1COC2=O [Example 115, (R)-3-(difluoromethyl)-1-(5-(((2-hydroxy-2-(4-methyl-1-oxo-1,3-dihydroisobenzofuran-5-yl)ethyl)amino)methyl)pyrimidin-2-yl)-1H-pyrazole-4-carbonitrile] | 20 | 20 | 12 | –
3 | Cc1cn(-c2ccc(CNC[C@H](O)c3ccc4c(c3C)COC4=O)cn2)cn1 [Example 108, (R)-5-(1-hydroxy-2-(((6-(4-methyl-1H-imidazol-1-yl)pyridin-3-yl)methyl)amino)ethyl)-4-methylisobenzofuran-1(3H)-one] | 35 | 19 | 7.3 | –
4 | COc1nc(-n2cc(CNC[C@H](O)c3ccc4c(c3C)COC4=O)nn2)cc(C)c1C#N [Example 67, (R)-6-(4-(((2-hydroxy-2-(4-methyl-1-oxo-1,3-dihydroisobenzofuran-5-yl)ethyl)amino)methyl)-1H-1,2,3-triazol-1-yl)-2-methoxy-4-methylnicotinonitrile] | 20 | 9.3 | 11 | –
5 | Cc1cc(-n2cc(CNCC(O)c3ccc4c(c3C3CC3)COC4=O)cn2)ncc1C#N (single isomer, unassigned) [Example 46-I, 6-(4-(((2-(4-cyclopropyl-1-oxo-1,3-dihydroisobenzofuran-5-yl)2-hydroxyethyl)amino)meth-yl)-1H-pyrazol-1-yl)-4-methylnicotinonitrile] | 33 | 17 | – | –
6 | COc1cc(-c2cc(CNC[C@H](O)c3ccc4c(c3C)COC4=O)on2)ncc1C#N [Example 137, (R)-6-(5-(((2-hydroxy-2-(4-methyl-1-oxo-1,3-dihydroisobenzofuran-5-yl)ethyl)amino)methyl)isoxazol-3-yl)-4-methoxynicotinonitrile] | 35 | 26 | 7.6 | –
7 | Cc1c(C(O)CNCc2ccc(-c3ccc4oc(=O)n(C)c4c3)nc2)ccc2c1COC2=O (single isomer, unassigned) [Example 23-I, 5-(5-(((2-hydroxy-2-(4-methyl-1-oxo-1,3-dihydroisobenzofuran-5-yl)ethyl)amino)methyl)pyridin-2-yl)-3-methylbenzo[d]oxazol-2(3H)-one] | 160 | 15 | 13 | –
8 | Cc1nn(-c2ccc(CNC[C@H](O)c3ccc4c(c3C)COC4=O)cn2)cc1C#N [Example 178, (R)-1-(5-(((2-hydroxy-2-(4-methyl-1-oxo-1,3-dihydroisobenzofuran-5-yl)ethyl)amino)methyl)pyridin-2-yl)-3-methyl-1H-pyrazole-4-carbonitrile] | 3.6 | 2.1 | 36 | –
9 | Cc1cc(-c2cc(CNC[C@H](O)c3ccc4c(c3C)COC4=O)on2)ncc1C#N [Example 140, (R)-6-(5-(((2-hydroxy-2-(4-methyl-1-oxo-1,3-dihydroisobenzofuran-5-yl)ethyl)amino)methyl)isoxazol-3-yl)-4-methylnicotinonitrile] | 56 | 16 | 8.6 | –
10 | Cc1nn(-c2ncc(CNC[C@H](O)c3ccc4c(c3C)COC4=O)cn2)cc1C#N [Example 105, (R)-1-(5-(((2-hydroxy-2-(4-methyl-1-oxo-1,3-dihydroisobenzofuran-5-yl)ethyl)amino)methyl)pyrimidin-2-yl)-3-methyl-1H-pyrazole-4-carbonitrile] | 11 | 7.8 | 3.4 | –
11 | Cc1c([C@@H](O)CNCc2ccc(-n3cc(C#N)cn3)nc2)ccc2c1COC2=O [Example 177] | 0.57 | 0.15 | 98 | –
12 | CN(Cc1ccc(-c2ccc3oc(=O)n(C)c3c2)nc1)C[C@H](O)c1ccc2oc(=O)n(C)c2c1 [Example 6-I] | – | 11 | – | 26
13 | COc1cc(-n2cnc(CNC[C@H](O)c3ccc4c(c3C)COC4=O)c2)ncc1C#N [Example 51, (R)-6-(4-(((2-hydroxy-2-(4-methyl-1-oxo-1,3-dihydroisobenzofuran-5-yl)ethyl)amino)methyl)-1H-imidazol-1-yl)-4-methoxynicotinonitrile] | 73 | 38 | 3.4 | –
14 | COc1cc(-n2cc(CNC[C@H](O)c3ccc4c(c3C)COC4=O)nn2)ncc1C#N [Example 138, (R)-6-(4-(((2-hydroxy-2-(4-methyl-1-oxo-1,3-dihydroisobenzofuran-5-yl)ethyl)amino)methyl)-1H-1,2,3-triazol-1-yl)-4-methoxynicotinonitrile] | 43 | 18 | 10 | –
15 | Cc1c([C@@H](O)CNCc2cnc(-n3c(C)nnc3C)nc2)ccc2c1COC2=O [Example 47, (R)-5-(2-(((2-(3,5-dimethyl-4H-1,2,4-triazol-4-yl)pyrimidin-5-yl)methyl)amino)-1-hydroxyethyl)-4-methylisobenzofuran-1(3H)-one] | 100 | 420 | 9.7 | –
16 | Cc1c(C(O)CN(C)Cc2ccc(-c3ccc4oc(=O)n(C)c4c3)nc2)ccc2c1COC2=O (stereo not drawn) [Example 1-I, 5-(5-(((2-hydroxy-2-(4-methyl-1-oxo-1,3-dihydroisobenzofuran-5-yl)ethyl)(methyl)amino)methyl)pyridin-2-yl)-3-methylbenzo[d]oxazol-2(3H)-one] | 170 | 19 | 8.7 | –
17 | COc1cc(-c2ccc(CNC[C@H](O)c3ccc4c(c3C)COC4=O)cn2)ncc1C#N [Example 130, (R)-5′-(((2-hydroxy-2-(4-methyl-1-oxo-1,3-dihydroisobenzofuran-5-yl)ethyl)amino)methyl)-4-methoxy-[2,2′-bipyridine]-5-carbonitrile] | 8.3 | 1.1 | 32 | –
18 | Cc1c(C(O)CN(C)Cc2ccc(-c3ccc(C#N)c(F)c3)cc2)ccc2c1COC2=O (single isomer, unassigned) [Example 27-I, 3-fluoro-4′-(((2-hydroxy-2-(4-methyl-1-oxo-1,3-dihydroisobenzofuran-5-yl)ethyl)(methyl)amino)methyl)-[1,1′-biphenyl]-4-carbonitrile] | 40 | 6.8 | 95 | –
19 | Cc1c(C(O)CNCc2ccc3c(ccn3-c3ccc4c(c3)COC4=O)c2)ccc2c1COC2=O (stereo not drawn) [Example 8-I, 5-(1-hydroxy-2-(((1-(1-oxo-1,3-dihydroisobenzofuran-5-yl)-1H-indol-5-yl)methyl)amino)ethyl)-4-methylisobenzofuran-1(3H)-one] | 290 | 42 | 83 | –
20 | Cc1nc(-n2cc(CNC[C@H](O)c3ccc4c(c3C)COC4=O)cn2)nc(C)c1C#N [Example 87, (R)-2-(4-(((2-hydroxy-2-(4-methyl-1-oxo-1,3-dihydroisobenzofuran-5-yl)ethyl)amino)methyl)-1H-pyrazol-1-yl)-4,6-dimethylpyrimidine-5-carbonitrile] | 40 | 71 | 7.5 | –
21 | Cc1cc(-n2cc(CNC[C@H](NS(C)(=O)=O)c3ccc4c(c3C)COC4=O)cn2)ncc1C#N [Example 61, (R)-N-(2-(((1-(5-cyano-4-methylpyridin-2-yl)-1H-pyrazol-4-yl)methyl)amino)-1-(4-methyl-1-oxo-1,3-dihydroisobenzofuran-5-yl)ethyl)methanesulfonamide] | 27 | 27 | 8.4 | –
22 | Cc1cn(-c2ncc(CNC[C@H](O)c3ccc4c(c3C)COC4=O)cn2)cn1 [Example 106, (R)-5-(1-hydroxy-2-(((2-(4-methyl-1H-imidazol-1-yl)pyrimidin-5-yl)methyl)amino)ethyl)-4-methylisobenzofuran-1(3H)one] | 26 | 9.2 | 2.4 | –
23 | Cc1cc(-c2ccc(CN(C)CC(O)c3ccc4c(c3C)COC4=O)cc2)ncc1C#N (single isomer, unassigned) [Example 31-I, 6-(4-(((2-hydroxy-2-(4-methyl-1-oxo-1,3-dihydroisobenzofuran-5-yl)ethyl)(methyl)amino)methyl)phenyl)-4-methylnicotinonitrile] | 40 | – | 39 | –
24 | COc1c(CNC[C@H](O)c2ccc3c(c2C)COC3=O)cnn1-c1cc(C)c(C#N)cn1 [Example 35, (R)-6-(4-(((2-hydroxy-2-(4-methyl-1-oxo-1,3-dihydroisobenzofuran-5-yl)ethyl)amino)methyl)-5-methoxy-1H-pyrazol-1-yl)-4-methylnicotinonitrile] | 1 | – | 91 | –
25 | Cc1c([C@@H](O)CNCc2ccc(-n3cnc(C#N)n3)nc2)ccc2c1COC2=O [Example 132, (R)-1-(5-(((2-hydroxy-2-(4-methyl-1-oxo-1,3-dihydroisobenzofuran-5-yl)ethyl)amino)methyl)pyridin-2-yl)-1H-1,2,4-triazole-3-carbonitrile] | 26 | – | 61 | –
26 | Cc1c([C@@H](O)CNCc2ccc(-n3cnc(C#N)c3)nc2)ccc2c1COC2=O [Example 131, (R)-1-(5-(((2-hydroxy-2-(4-methyl-1-oxo-1,3-dihydroisobenzofuran-5-yl)ethyl)amino)methyl)pyridin-2-yl)-1H-imidazole-4-carbonitrile] | 9.2 | – | 79 | –
